# According to the supplement of paper PMC10307832:
# Key:
# Assay in all cases: relative viability (nuclei count vs DMSO), 5 days (fraction); higher = more cells survive
# TPCA-1 + Lapatinib = compound: C1=CC(=CC=C1C2=CC(=C(S2)NC(=O)N)C(=O)N)F [TPCA-1] + CS(=O)(=O)CCNCc1ccc(-c2ccc3ncnc(Nc4ccc(OCc5cccc(F)c5)c(Cl)c4)c3c2)o1 [Lapatinib] (partner 2 µM)
# In short: (§1)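 Each reported value is a median over duplicate plates. It expresses relative viability: treated-well nuclei count divided by vehicle-well nuclei count. Lung cancer cell lines in 1536-well plates were dosed by pin tool a day after seeding, alone with one drug or with a fixed anchor-drug dose plus five library-drug doses (not always all listed) in √10 steps, and nuclei were counted after 5 days.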
# [1] = compound: C1/C(=C\C2=CC=CS2)/C(=O)/C(=C/C3=CC=CS3)/C1 + Cc1nc(NC(=O)N2CCC[C@H]2C(N)=O)sc1-c1ccnc(C(C)(C)C(F)(F)F)c1 [Alpelisib] (partner 2 µM)
# In short: as §1
# TPCA-1 + Trametinib = compound: C1=CC(=CC=C1C2=CC(=C(S2)NC(=O)N)C(=O)N)F [TPCA-1] + CC(=O)Nc1cccc(-n2c(=O)n(C3CC3)c(=O)c3c(Nc4ccc(I)cc4F)n(C)c(=O)c(C)c32)c1 [Trametinib] (partner 0.02 µM)
# In short: as §1
# [2] = compound: C1/C(=C\C2=CC=CS2)/C(=O)/C(=C/C3=CC=CS3)/C1 + O=C(c1cc(Cc2n[nH]c(=O)c3ccccc23)ccc1F)N1CCN(C(=O)C2CC2)CC1 [Olaparib] (partner 8 µM)
# In short: as §1
Cell Line,relative viability (TPCA-1 + Lapatinib; first compound 0.04 µM),relative viability (TPCA-1 + Lapatinib; first compound 0.1265 µM),relative viability (TPCA-1 + Lapatinib; first compound 0.4 µM),relative viability (TPCA-1 + Lapatinib; first compound 1.265 µM),relative viability (TPCA-1 + Lapatinib; first compound 4 µM),relative viability ([1]; first compound 0.2 µM),relative viability ([1]; first compound 0.6325 µM),relative viability ([1]; first compound 2 µM),relative viability ([1]; first compound 6.325 µM),relative viability ([1]; first compound 20 µM),relative viability (TPCA-1 + Trametinib; first compound 0.04 µM),relative viability (TPCA-1 + Trametinib; first compound 0.1265 µM),relative viability (TPCA-1 + Trametinib; first compound 0.4 µM),relative viability (TPCA-1 + Trametinib; first compound 1.265 µM),relative viability (TPCA-1 + Trametinib; first compound 4 µM),relative viability ([2]; first compound 0.2 µM),relative viability ([2]; first compound 0.6325 µM),relative viability ([2]; first compound 2 µM),relative viability ([2]; first compound 6.325 µM),relative viability ([2]; first compound 20 µM)
LXF-289,0.914,0.927,0.807,0.831,0.726,1.02,1.08,1.05,0.974,1.04,0.7,0.629,0.635,0.653,0.565,1.06,1.07,1.06,0.936,1.02
NCI-H23,1.06,0.96,1.05,1,0.349,0.705,0.899,0.706,0.483,0.742,0.535,0.377,0.362,0.382,0.358,0.398,0.324,0.301,0.382,0.309
NCI-H322M,0.646,0.612,0.589,0.65,0.492,0.739,0.833,0.832,0.666,0.708,0.499,0.455,0.51,0.449,0.494,0.827,0.776,0.822,0.783,0.762
NCI-H358,0.479,0.428,0.462,0.361,0.334,1.11,0.799,0.861,0.668,0.88,0.167,0.165,0.157,0.158,0.0935,0.862,0.715,0.657,0.443,0.492
NCI-H460,1.26,0.982,1.12,0.9,0.335,0.491,0.576,0.601,–,0.463,0.172,0.161,–,0.145,0.154,0.548,0.455,0.503,0.398,0.449
NCI-H520,0.905,0.752,0.879,0.756,0.168,0.927,0.847,0.928,0.82,0.835,0.773,0.69,0.75,0.674,0.278,0.316,0.34,0.324,–,0.35
NCI-H596,1.06,1.08,1.15,1.13,1.07,0.56,0.467,0.522,0.467,0.389,0.801,0.78,0.74,0.884,0.658,0.674,0.727,0.767,0.596,0.665
NCI-H647,1.34,0.919,1.06,0.671,0.466,1.14,1.32,1.08,1,1.13,0.553,0.444,0.47,0.382,0.277,0.776,0.482,0.433,0.501,0.573
NCI-H650,1.03,1.05,0.93,0.357,0.487,1.2,1.19,1.19,0.935,1.05,1.08,0.857,0.948,0.862,0.813,0.575,0.425,0.376,0.378,0.423
NCI-H661,0.632,0.448,0.562,0.522,0.387,0.611,0.792,0.838,0.515,0.7,0.67,0.541,0.535,0.573,0.377,0.757,0.76,0.712,0.614,0.81
NCI-H727,0.83,0.772,0.694,0.815,0.738,0.578,0.532,0.616,0.507,0.567,0.393,0.361,0.442,0.421,0.357,0.803,0.627,0.755,–,0.697
NCI-H838,1.14,0.864,1.12,0.598,0.565,1.03,0.986,0.939,0.848,0.974,0.599,0.457,0.533,0.336,0.406,0.779,0.752,0.704,0.714,0.739
NCI-H1355,1.15,0.879,0.956,0.818,0.719,0.794,0.722,0.758,0.72,0.804,0.494,0.384,0.406,0.381,0.41,0.742,0.76,0.727,0.657,0.736
NCI-H1395,1.09,1.06,1.02,0.935,0.75,1.1,1.04,1.17,1.02,1.08,1.23,0.939,1.11,1.05,0.884,0.494,0.53,0.435,0.458,0.453
NCI-H1437,0.888,0.764,0.85,0.742,0.604,0.985,0.923,0.988,0.639,0.901,0.581,0.493,0.521,0.511,0.453,0.667,0.618,0.634,0.563,0.617
NCI-H1651,1.02,0.746,0.951,0.848,0.8,1.11,0.899,1.03,–,0.975,0.894,0.799,0.838,0.824,0.787,0.174,0.207,0.197,0.19,0.229
